The values below are quoted from earlier work in patent US7741370B2, “Double salts of (−)-hydroxycitric acid and a process for preparing the same” (Laila Impex, priority 2004, dated 2010).

For data set [1] the following is noted: free acid form, forming a lactone; liquid form unstable during storage.
For data set [2] the following is noted: prior-art salt (US 5,783,603), statement in words.

For `O=C(O)CC(O)(C(=O)O)C(O)C(=O)O` (single isomer, unassigned; (-)) [(−)-hydroxycitric acid], in data set [1], the stability entry was “unstable”. As to potassium salt of HCA, in data set [2], the hygroscopicity entry is given as “hygroscopic”.
